Results published in PubChem BioAssay (NCI).
Where “and” joins values, the source holds several entries; their conditions need not be identical. Identical values can stand only once.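 Assay format: 96-well plates, 48-hour exposure. GI50 is the concentration that inhibits growth by half. TGI marks complete inhibition of growth.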

How the values were obtained:
Test in all cases: inhibition of tumour cell growth, NCI panel, 48 h
CCRF-CEM leukemia = test system: CCRF-CEM leukemia
COLO 205 colon = test system: COLO 205 colon
DMS 114 small cell lung = test system: DMS 114 small cell lung
HCC-2998 colon = test system: HCC-2998 colon
HOP-18 NSCLC = test system: HOP-18 NSCLC
KM20L2 colon = test system: KM20L2 colon
M14 melanoma = test system: M14 melanoma
NCI-H23 lung = test system: NCI-H23 lung
SK-MEL-5 melanoma = test system: SK-MEL-5 melanoma
SR leukemia = test system: SR leukemia
SW-620 colon = test system: SW-620 colon

Structure (SMILES) | TGI (CCRF-CEM leukemia) | TGI (COLO 205 colon) | TGI (DMS 114 small cell lung) | TGI (HCC-2998 colon) | TGI (HOP-18 NSCLC) | TGI (KM20L2 colon) | TGI (M14 melanoma) | TGI (NCI-H23 lung) | TGI (SK-MEL-5 melanoma) | TGI (SR leukemia) | TGI (SW-620 colon) | GI50 (CCRF-CEM leukemia) | GI50 (COLO 205 colon) | GI50 (HCC-2998 colon) | GI50 (M14 melanoma) | GI50 (NCI-H23 lung) | GI50 (SK-MEL-5 melanoma) | GI50 (SR leukemia) | GI50 (SW-620 colon) | GI50 (HOP-18 NSCLC)
Cc1ccc(S(=O)(=O)N2CCN(C=S)CC2)cc1 | > 100 µM | > 100 µM | > 100 µM | > 100 µM | > 100 µM | > 100 µM | > 100 µM | > 100 µM | > 100 µM | > 100 µM | > 100 µM | – | – | – | – | – | – | – | – | –
O=C(OCCCl)C1OC(n2cc(F)c(=O)[nH]c2=O)CC1O (stereo not given) | > 100 µM | > 100 µM | > 100 µM | > 100 µM | > 100 µM | > 100 µM | > 100 µM | > 100 µM | > 100 µM | – | > 100 µM | – | – | – | – | – | – | – | – | –
O=C(Cc1nc2ccccc2o1)C(=O)Nc1cccc(Cl)c1 | > 100 µM | > 100 µM | > 100 µM | > 100 µM | > 100 µM | > 100 µM | > 100 µM | > 100 µM | – | > 100 µM | > 100 µM | – | – | – | – | – | – | – | – | –
COc1cc(/C=C2\CCC/C(=C\c3ccc(O)c(OC)c3)C2=O)ccc1O | 12.2 µM and > 100 µM | 24.4 µM and 13.6 µM | 4.48 µM | 8.09 µM and 3.04 µM | 9.21 µM | 28.7 µM | 6.79 µM and 5.61 µM | 24.8 µM and 4.63 µM | 6.82 µM and 3.09 µM | – | 9.59 µM and 3.51 µM | 366 nM | 3.61 µM | 1670 nM | 1920 nM | 1840 nM | 1540 nM | 1080 nM | 1840 nM | –
N#CCC(=O)N/N=C1/C(=O)N(c2cc(Cl)ccc2Cl)C(=O)C(=O)C1c1nc2ccccc2s1 (stereo not given) | > 100 µM | > 100 µM | > 100 µM | > 100 µM | > 100 µM | > 100 µM | > 100 µM | > 100 µM | > 100 µM | – | > 100 µM | – | – | – | – | – | – | – | – | –
O=C1C(=C([O-])c2ccccc2)C(=O)c2ccccc21.O=C1C(=C([O-])c2ccccc2)C(=O)c2ccccc21.[Mn+2] | – | – | – | > 100 µM | > 100 µM | – | > 100 µM | – | > 100 µM | – | > 100 µM | – | – | > 100000 nM | 70400 nM | – | 16100 nM | – | > 100000 nM | 35.4 µM
CCn1c2ccccc2c(=O)c2c(OC)ccc(OC)c21 | > 100 µM | > 100 µM | – | – | – | > 100 µM | > 100 µM | > 100 µM | – | > 100 µM | > 100 µM | – | – | – | – | – | – | – | – | –
CC(=O)CC/C=C(\C)[C@H](O)[C@H](C)C(=O)O[C@H]1C[C@H](C)C=C2C=C[C@@]3(C)O[C@@H](O)CC(=O)[C@]3(C)[C@H]21 | 4.83 µM | 2.03 µM | – | 1.96 µM | – | – | 2.38 µM | 2.44 µM | 2.08 µM | 12 µM | 9.03 µM | 514 nM | 0.425 µM | 394 nM | 906 nM | 384 nM | 598 nM | 362 nM | 449 nM | –
Cc1ccc(C=C2C(Cl)=C(Cl)C(Cl)=C2Cl)cc1 | 0.49 µM | 2.09 µM | – | 2.93 µM | – | – | 1.66 µM | 2.5 µM | 2.41 µM | 0.444 µM | 1.18 µM | 167 nM | 0.737 µM | 1470 nM | 561 nM | 533 nM | 1090 nM | 166 nM | 339 nM | –
O=[N+]([O-])c1ccc(C(Cl)C(Cl)c2ccc(C(Cl)C(Cl)c3ccc([N+](=O)[O-])cc3[N+](=O)[O-])cc2)c([N+](=O)[O-])c1 (stereo not given) | 1.02 µM | 1.99 µM | 3.59 µM | 6.87 µM and 1.59 µM | – | 2.28 µM | 1.77 µM and 0.681 µM | 4.69 µM and 0.582 µM | 1.86 µM and 0.335 µM | > 62 µM | 1.69 µM | – | – | 473 nM | 243 nM | 216 nM | 172 nM | – | – | –
Cn1cc(C2=C(c3cn(-c4ccccc4)c4ccccc34)C(=O)NC2=O)c2ccccc21 | > 25 µM | > 25 µM | – | > 25 µM | – | – | > 25 µM | > 25 µM | > 25 µM | > 25 µM | > 25 µM | 15200 nM | 11.6 µM | 24400 nM | 13000 nM | 18800 nM | 10800 nM | 9370 nM | 9680 nM | –
CC1(C)N=C(N)N=C(N)N1c1ccc(OCCCNC(=O)Nc2cccc(S(=O)(=O)F)c2)c(Cl)c1 | > 100 µM | > 100 µM | – | > 100 µM | – | – | > 100 µM | > 100 µM | > 100 µM | > 100 µM | > 100 µM | 3620 nM | 12.5 µM | 8550 nM | 3260 nM | 3650 nM | 715 nM | 637 nM | 1640 nM | –
O=C(CCc1ccccc1)NS(=O)(=O)c1ccccc1 | > 100 µM | > 100 µM | > 100 µM | > 100 µM | > 100 µM | > 100 µM | > 100 µM | > 100 µM | – | > 100 µM | > 100 µM | – | – | – | – | – | – | – | – | –
NC(=S)N/N=C1\c2ccccc2-c2c(F)c(F)c(F)c(F)c21 | 3.95 µM | 19.6 µM | – | 9.37 µM | – | – | 15.6 µM | 25 µM | > 50.4 µM | 1.86 µM | 3.66 µM | 1090 nM | 8.01 µM | 3110 nM | 4530 nM | 9790 nM | 17100 nM | 298 nM | 1790 nM | –
CCC1C(C(=O)Nc2ccccc2C)=C(C)NC(C)=C1c1ccccc1C (stereo not given) | > 100 µM | > 100 µM | – | > 100 µM | > 100 µM | > 100 µM | > 100 µM | > 100 µM | > 100 µM | > 76.7 µM | > 59.9 µM | – | – | – | – | – | – | – | – | –
